Measurements reported in ChEMBL document CHEMBL1201862, “PubChem BioAssay data set” (2004).
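Each compound was tested at five concentrations against cells in 96-well plates for 48 hours. At the GI50, growth is halved.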 Calls of active or inactive are those of the source. Cut-off read from the data, not from the text of the source: active = GI50 up to about 1.1 µM and inactive = higher.

Key:
Assay in all cases: NCI-60 cell line screen, 48 h
ACHN = test system: ACHN
HCC 2998 = test system: HCC 2998
HT-29 = test system: HT-29
K562 = test system: K562
KM12 = test system: KM12
NCI-H226 = test system: NCI-H226
OVCAR-8 = test system: OVCAR-8
RPMI-8226 = test system: RPMI-8226
RXF 393 = test system: RXF 393
SK-MEL-28 = test system: SK-MEL-28
SNB-19 = test system: SNB-19
TK-10 = test system: TK-10
U-251 = test system: U-251
UACC-257 = test system: UACC-257
UACC-62 = test system: UACC-62

Measured: GI50

CCCCCCCCCC(=O)Oc1cccc2onc(C)c12
inactive: ACHN > 100 µM | HCC 2998 79.1 µM | HT-29 > 100 µM | K562 73.1 µM | KM12 77.4 µM | NCI-H226 88.9 µM | OVCAR-8 > 100 µM | RPMI-8226 > 100 µM | RXF 393 > 100 µM | SK-MEL-28 > 100 µM | SNB-19 > 100 µM | TK-10 > 100 µM | U-251 > 100 µM | UACC-257 > 100 µM | UACC-62 > 100 µM

COc1ccc([C@H]2CC(=O)N3CCCC3N2)cc1 (some centres undefined)
inactive: ACHN > 100 µM | HCC 2998 > 100 µM | HT-29 > 100 µM | K562 > 100 µM | KM12 > 100 µM | NCI-H226 > 100 µM | OVCAR-8 > 100 µM | RPMI-8226 > 100 µM | RXF 393 > 100 µM | SK-MEL-28 > 100 µM | SNB-19 > 100 µM | TK-10 > 100 µM | U-251 > 100 µM | UACC-257 > 100 µM | UACC-62 > 100 µM

CCOC(=O)C(C)(c1c(C)[nH]c2ccccc12)c1c(C)[nH]c2ccccc12
inactive: ACHN 19.5 µM | HCC 2998 23.3 µM | HT-29 16.7 µM | K562 8.36 µM | KM12 14.2 µM | NCI-H226 13.5 µM | OVCAR-8 26.8 µM | RPMI-8226 16.8 µM | RXF 393 12.9 µM | SK-MEL-28 15.3 µM | TK-10 18.7 µM | U-251 16.9 µM | UACC-257 14.8 µM | UACC-62 14.2 µM

Cc1nn2c(=O)n(-c3cccc(-n4nnc5c(-c6ccccc6)c(C)nn5c4=O)c3C)nnc2c1-c1ccccc1
inactive: ACHN 18.7 µM | HCC 2998 20.5 µM | HT-29 35.7 µM | K562 20.1 µM | KM12 > 10 µM | NCI-H226 45.3 µM | OVCAR-8 24.7 µM | RPMI-8226 17.6 µM | RXF 393 34.6 µM | SNB-19 > 100 µM | TK-10 47.9 µM | U-251 25.2 µM | UACC-257 22.4 µM | UACC-62 46.1 µM

C=C(C)C1CCC2(C)CC1c1c(c(C)cc3c1[nH]c1ccccc13)O2 (centres undefined)
inactive: ACHN > 25 µM | HCC 2998 > 25 µM | HT-29 > 25 µM | K562 12 µM | KM12 > 25 µM | NCI-H226 16.7 µM | OVCAR-8 > 25 µM | RPMI-8226 > 25 µM | SK-MEL-28 > 25 µM | SNB-19 > 25 µM | U-251 > 25 µM | UACC-62 > 25 µM

Brc1ccc2c(c1)C1(c3cc(Br)ccc3-2)c2cc(Br)ccc2-c2ccc(Br)cc21
inactive: ACHN > 100 µM | HCC 2998 > 100 µM | HT-29 > 100 µM | K562 > 100 µM | KM12 > 100 µM | NCI-H226 > 100 µM | OVCAR-8 > 100 µM | RPMI-8226 > 100 µM | RXF 393 > 100 µM | SK-MEL-28 > 100 µM | SNB-19 > 100 µM | TK-10 > 100 µM | U-251 > 100 µM | UACC-257 > 100 µM | UACC-62 > 100 µM

Nc1ccc(C(=O)N/C(=C\c2cccc([N+](=O)[O-])c2)c2nc3c4c(ccc3[nH]2)C(=O)c2ccccc2C4=O)cc1
inactive: HCC 2998 > 100 µM | HT-29 62.5 µM | K562 56 µM | OVCAR-8 25 µM | RPMI-8226 6.78 µM | RXF 393 10.1 µM | SK-MEL-28 30.3 µM | SNB-19 13.6 µM | TK-10 19.2 µM | U-251 14 µM | UACC-257 > 100 µM | UACC-62 53.3 µM

Cn1cnc([N+](=O)[O-])c1Sc1nc2cccnc2[nH]1
inactive: ACHN > 100 µM | HCC 2998 > 100 µM | HT-29 > 100 µM | K562 22.8 µM | KM12 54.1 µM | NCI-H226 > 100 µM | OVCAR-8 86.5 µM | RPMI-8226 68.5 µM | RXF 393 97.5 µM | SK-MEL-28 62.5 µM | SNB-19 > 100 µM | TK-10 55.6 µM | U-251 > 100 µM | UACC-257 91.2 µM | UACC-62 67.6 µM

COC1C=CC23c4cc5c(cc4C(O)OC2CN(C)C3C1)OCO5 (centres undefined)
inactive: ACHN 1.32 µM | HCC 2998 2.29 µM | K562 1.77 µM | KM12 2.13 µM | NCI-H226 1.64 µM | OVCAR-8 2.16 µM | RPMI-8226 2.56 µM | SNB-19 1.65 µM | UACC-257 1.77 µM | UACC-62 4.13 µM

O=C(c1ccccc1)C(c1ccccc1)C1(O)C(=O)Nc2c(Cl)ccc(Cl)c21 (centres undefined)
inactive: ACHN 16.9 µM | HCC 2998 30.8 µM | HT-29 19.9 µM | K562 12.5 µM | KM12 18.2 µM | OVCAR-8 19.4 µM | RPMI-8226 12.2 µM | RXF 393 19.5 µM | SK-MEL-28 18.7 µM | SNB-19 30.3 µM | TK-10 32.6 µM | U-251 25.8 µM | UACC-257 15.4 µM | UACC-62 15.6 µM

CC(C)(C)NN=C1C(C)(C)C(=NNC(C)(C)C)C1(C)C
inactive: ACHN > 100 µM | HCC 2998 > 100 µM | HT-29 > 100 µM | K562 > 100 µM | KM12 > 100 µM | NCI-H226 > 100 µM | OVCAR-8 > 100 µM | RPMI-8226 > 100 µM | RXF 393 > 100 µM | SK-MEL-28 > 100 µM | SNB-19 > 100 µM | TK-10 > 100 µM | U-251 > 100 µM | UACC-257 > 100 µM | UACC-62 > 100 µM

C/C(CN1C(=O)c2ccccc2C1=O)=N\NS(C)(=O)=O
inactive: ACHN > 100 µM | HCC 2998 > 100 µM | HT-29 > 100 µM | K562 > 100 µM | KM12 > 100 µM | NCI-H226 > 100 µM | OVCAR-8 > 100 µM | RPMI-8226 > 100 µM | RXF 393 > 100 µM | SK-MEL-28 > 100 µM | SNB-19 > 100 µM | TK-10 > 100 µM | U-251 > 100 µM | UACC-257 > 100 µM | UACC-62 > 100 µM

O=C(O)CCSC(=O)Nc1cccc2ccccc12
inactive: ACHN > 100 µM | HCC 2998 > 100 µM | HT-29 > 100 µM | K562 > 100 µM | KM12 > 100 µM | NCI-H226 > 100 µM | OVCAR-8 > 100 µM | RPMI-8226 > 100 µM | RXF 393 > 100 µM | SK-MEL-28 > 100 µM | SNB-19 > 100 µM | TK-10 > 100 µM | U-251 > 100 µM | UACC-257 > 100 µM | UACC-62 > 100 µM

O=C(Cc1ccccc1)NN1C(=O)C(Cl)C1c1ccc(O)cc1 (centres undefined)
inactive: ACHN > 100 µM | HCC 2998 > 100 µM | HT-29 > 100 µM | K562 > 100 µM | KM12 > 100 µM | NCI-H226 > 100 µM | OVCAR-8 > 100 µM | RPMI-8226 > 100 µM | RXF 393 > 100 µM | SK-MEL-28 > 100 µM | SNB-19 > 100 µM | TK-10 > 100 µM | U-251 > 100 µM | UACC-257 > 100 µM | UACC-62 > 100 µM

N/C(=N\N=C=C1C(=O)Nc2ccc(F)cc21)NO
inactive: ACHN 59.8 µM | HCC 2998 > 100 µM | HT-29 > 100 µM | K562 95.9 µM | KM12 41.4 µM | OVCAR-8 > 100 µM | RXF 393 > 100 µM | SK-MEL-28 > 100 µM | TK-10 > 100 µM | U-251 > 100 µM | UACC-257 > 100 µM | UACC-62 39.3 µM

CC(C)(C)OC(=O)NC(CO)c1cccc(OCc2ccccc2)c1 (centres undefined)
inactive: ACHN 71.4 µM | HCC 2998 > 100 µM | HT-29 > 100 µM | K562 36 µM | KM12 > 100 µM | NCI-H226 > 100 µM | OVCAR-8 > 100 µM | RPMI-8226 43.4 µM | RXF 393 > 100 µM | SK-MEL-28 > 100 µM | SNB-19 > 81.7 µM | TK-10 > 82.6 µM | U-251 94.6 µM | UACC-257 25.9 µM | UACC-62 33 µM

CCO/C=C\C12CCCC1NC(c1ccccc1)(c1ccccc1)O2 (centres undefined)
inactive: ACHN 30.3 µM | HT-29 23.2 µM | K562 20.1 µM | KM12 35.7 µM | NCI-H226 43.8 µM | OVCAR-8 39.2 µM | RXF 393 31 µM | SK-MEL-28 40.5 µM | SNB-19 45.7 µM | TK-10 31.5 µM | U-251 33.3 µM | UACC-257 27.5 µM | UACC-62 21.7 µM

COC1=CC(=O)C2C(C1=O)C(c1ccc(Cl)cc1)[C@@H]2C (some centres undefined)
inactive: ACHN 17.3 µM | HCC 2998 45.5 µM | HT-29 > 100 µM | K562 28.3 µM | KM12 47.2 µM | NCI-H226 22.1 µM | OVCAR-8 20.6 µM | RPMI-8226 39.7 µM | RXF 393 24.1 µM | SK-MEL-28 28.9 µM | SNB-19 7.05 µM | TK-10 38.7 µM | U-251 25.2 µM | UACC-257 20.6 µM | UACC-62 24.7 µM

COc1ccc(/C=C\c2cc(OC)c(OC(C)=O)c(OC)c2)cc1
inactive: ACHN 27.9 µM | HCC 2998 10.7 µM | HT-29 12.4 µM | K562 2.03 µM | KM12 5.06 µM | NCI-H226 27.4 µM | OVCAR-8 8.89 µM | RPMI-8226 12.8 µM | SK-MEL-28 3.43 µM | SNB-19 7.24 µM | U-251 4.21 µM | UACC-257 17.3 µM | UACC-62 8.15 µM
